By MIC is commonly meant the lowest concentration that inhibits growth of the organism.

This passage reports IC50 and MIC results from patent publication US4590270A, “2,4-diamino-[4-piperidinyl]pyrimidines useful as antibacterial agents, antimalarial agents, antitumors agents” (Hoffmann-La Roche Inc., priority 1983, dated 1986).

Values after ≈ are worked out from the molar mass of the structure shown. Like-named read-outs stand apart in the source and are kept apart here.

For assay [1], the target named is dihydrofolate reductase from E. coli (Escherichia coli, UniProt P0ABQ4). The experiment in a line: inhibition of dihydrofolate reductase from E. coli. The class given is biochemical.
Assay [2] deals with Bacteroides fragilis strains. The experiment in a line: in vitro minimum inhibitory concentration against Bacteroides fragilis strains. Type of assay: cell-based. As for the experimental part:
(§1) In the case of in vitro experiments an minimum inhibitory concentration of 0.1-1.6 μg/ml has been determined for compound A against Bacteroides fragilis strains. […] In comparison to this, values of 79 and 45 μg/l, respectively, were determined for the known pyrimethamine.

The next assay deals with P. falciparum. The experiment in a line: in vitro activity against malaria pathogen P. falciparum. Type of assay: cell-based. Particulars: Plasmodium falciparum. As for the experimental part:
as §1

Setting [3] is: P. falciparum strain 13, read-out: ID50 (the source's name).
Where [4] appears, read: P. falciparum strain T9, read-out: ID50 (the source's name).

In the case of `COc1cc(OC)cc(N2[C@@H]3CC[C@H]2C[C@H](c2cnc(N)nc2N)C3)c1` [compound A, exo-2,4-diamino-5-[8-(3,5-dimethoxyphenyl)-8-azabicyclo[3.2.1]oct-3-yl]pyrimidine], the results for the IC50 (in assay [1]; with P. falciparum (setting [3]); in the assay with P. falciparum (setting [4])) were 3.3 nM, 0.0009 µg/mL (≈ 0.00253 µM) and 0.0014 µg/mL (≈ 0.00394 µM), respectively. In addition, in assay [2], the MIC was 0.1 to 1.6 µg/mL (≈ 0.281 to 4.5 µM).

Take `CCc1nc(N)nc(N)c1-c1ccc(Cl)cc1` [pyrimethamine, reference compound]: the IC50 with P. falciparum (setting [3]) came to 0.045 µg/mL (≈ 0.181 µM); in the assay on P. falciparum (setting [4]) it was 0.079 µg/mL (≈ 0.318 µM).
